Experimental data taken from US10004253B1, “Method for increasing the health condition of crustaceans in aquaculture, survival rate and pigmentation” (priority 2017, dated 2018).

Experiments:
white shrimp L. vannamei = assay: Different sources and doses of carotenoids in balanced feed, 60 day treatment, Example 6; assay type: in vivo; settings: 75 ppm in feed
From the text: 6. —Effects of different sources and doses of carotenoids in the balanced feed, growout, survival, and deposition of pigments in white shrimp L. vannamei. The following is a review of the results obtained regarding the dosing of Lutein/Zeaxanthin Long Chain Diesters in the feed, as compared to feed that contained synthetic Astaxanthin (Carophyll Pink). The average survival and final weight results of the experimental work with shrimp L. vannamei results, obtained after a 60 day treatment, are shown in Table V: […]

P. monodon shrimp = assay: Total pigment and Astaxanthin enantiomers deposited, commercial ponds, Example 7; assay type: in vivo; settings: feed with 60 ppm, sampled at three grams weight, lyophilized
Procedure: The concentration of total pigment in crustacean specimens extract was carried out by UV/VIS spectrophotometric methods measurement absorbance at 470 nm (A 1%=2100 in Hexane).
The Astaxanthin enantiometers deposited by the crustaceans specimens, or from its different organs, were quantified by HPLC after derivatization into the corresponding dicamphanates (Vecchi and Muller 1979).
7. —Comparison of the different Astaxanthin enantiomers deposited by P. monodon that were given the following three different diets: commercial feed as control; commercial feed containing 120 ppm of Lutein or Zeaxanthin Long Chain Diesters Concentrate; and commercial feed that contained 60 ppm of synthetic Astaxanthin (Carophyll Pink). […]
At three grams weight, the ponds were sampled, the specimens were lyophillized and the dehydrated samples were ground and analyzed.
The concentration of total pigment in the crustacean specimens extract was carried out by UV/Vis spectrophotometric methods measurement absorbance at 470 nm (A 1%=2100 in hexane).
The analysis of Astaxanthin R/S enantiomers deposited by the crustacean specimens, were quantified by HPLC after derivatization into the corresponding dicamphanates (Vecchi and Muller 1979), in order to differentiate the Astaxanthin enantiomers.

CC1=C(/C=C/C(C)=C/C=C/C(C)=C/C=C/C=C(C)/C=C/C=C(C)/C=C/C2=C(C)C(=O)[C@@H](O)CC2(C)C)C(C)(C)C[C@H](O)C1=O [ROCHE Astaxanthin, Astaxanthin]
FINAL WEIGHT grs (white shrimp L. vannamei): 7.77 grs | SURVIVAL % (white shrimp L. vannamei): 63.33% | ASTAX. IN HEAD (hepathopanchreas) (white shrimp L. vannamei; HPLC): 29.2 micrograms of Astaxanthin per gram of tissue | ASTAX. IN MUSCLE (white shrimp L. vannamei; HPLC): 11.4 micrograms of Astaxanthin per gram of tissue | ASTAX. IN SHELL (carapace) (white shrimp L. vannamei; HPLC): 75.1 micrograms of Astaxanthin per gram of tissue | Concentration of total pigment in specimens extract (UV/Vis 470 nm) (P. monodon shrimp): 152.5 ppm
